Tests used:
[1] = target: Glutamate receptor ionotropic, NMDA 1 (Rattus norvegicus, UniProt P35439); experiment: Ability of compound to displace [3H]glycine from N-methyl-D-aspartate glutamate receptor 1 from in cerebral cortex synaptic membranes; format: cell membranes
[2] = Ability of compound to inhibit the binding of the channel blocking agent [3H](+)-MK-801 in rat cortical membranes; format: cell membranes, Membrane
Glutamate NMDA receptor [3] = experiment: Inhibitory concentration of compound for depolarization induced by 5 uM NMDA in mouse cortical wedge preparation; format: protein-complex assay
[4] = target: Glutamate receptor ionotropic, kainate; experiment: Ability of compound to displace [3H]- kainate from ionotropic glutamate receptor kainate in rat cortical membranes; format: cell membranes, Membrane
[5] = target: T1, Glutamate receptor ionotropic, AMPA (Rattus norvegicus, UniProt P19490+P19491+P19492+P19493)
Description: Inhibitory concentration of compound for depolarization induced by 5 uM S-AMPA in mouse cortical wedge preparation

[6] = target: T1, Glutamate receptor ionotropic, AMPA; experiment: Ability of compound to displace [3H]AMPA from Ionotropic glutamate receptor AMPA in rat cerebral cortex synaptic membranes; format: cell membranes, Membrane
Rattus norvegicus = species on record: Rattus norvegicus; experiment: Ability of compound to inhibit the binding of the channel blocking agent [3H](+)-MK-801 in rat cortical membranes at 100 uM concentration; format: cell membranes; conditions: Membrane
Glutamate NMDA receptor [7] = target: Glutamate NMDA receptor

Ki [1] [µM] | IC50 [2] [µM] | IC50 (Glutamate NMDA receptor [3]) [µM] | IC50 [4] [µM] | IC50 [5] [µM] | Ki [6] [µM] | Ki (Glutamate NMDA receptor [7]) [µM] | Structure (SMILES) | inhibition (Rattus norvegicus) [%]
1.1 | 1.7 | 36 | 19.2 | 29 | 1.3 |  | O=c1[nH]c2cc(Cl)c([N+](=O)[O-])cc2c(=O)n1O | 
10.6 | 89 |  | 70 |  | 9.7 |  | Nc1cc2c(=O)n(O)c(=O)[nH]c2cc1Cl | 
0.3 | 0.43 |  | 68 |  | 12.5 |  | O=c1[nH]c2cc(Cl)c(Cl)cc2c(=O)n1O | 
0.2 | 0.75 | 42 | 52 | 33 | 9.8 |  | O=c1[nH]c2cc(Cl)cc(Cl)c2c(=O)n1O | 
 |  |  |  |  |  | 4.7 | O=C(O)c1cc(O)c2c(Cl)cc(Cl)cc2n1 | 
0.24 | 4.8 |  | 140 |  | 11.6 |  | O=c1[nH]c2cc(Cl)ccc2c(=O)n1O | 

Structure (SMILES) | Ki [1] [µM] | IC50 [2] [µM] | IC50 (Glutamate NMDA receptor [3]) [µM] | IC50 [4] [µM] | IC50 [5] [µM] | Ki [6] [µM] | Ki (Glutamate NMDA receptor [7]) [µM] | inhibition (Rattus norvegicus) [%]
O=c1[nH]c2cc(Cl)cc(Cl)c2c(=O)n1-c1ccccc1 | 23 |  |  |  |  |  |  | 
O=c1[nH]c2cc(Cl)c(-n3cnnc3)cc2c(=O)n1O | > 100 |  | 84 | 7 | 4.6 | 0.25 |  | 29
